Assays:
D(1A) dopamine receptor = D(1A) dopamine receptor (Homo sapiens, UniProt P21728); test: DRUGMATRIX: Dopamine D1 radioligand binding (ligand: [3H] SCH-23390); format: cell membranes, CHO, Membrane; conditions: cho; Not Active = under 50% inhibition at 10 µM
Neutrophil elastase = target: T1, Neutrophil elastase (Homo sapiens, UniProt P08246); format: tissue-based;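 further: inhibition of neutrophil elastase enzyme activity, measured with a p-nitroanilide-linked peptide substrate; in other assays of this panel Not Active means under 50% inhibition at 10 µM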
T1 sequence (P08246 whole entry): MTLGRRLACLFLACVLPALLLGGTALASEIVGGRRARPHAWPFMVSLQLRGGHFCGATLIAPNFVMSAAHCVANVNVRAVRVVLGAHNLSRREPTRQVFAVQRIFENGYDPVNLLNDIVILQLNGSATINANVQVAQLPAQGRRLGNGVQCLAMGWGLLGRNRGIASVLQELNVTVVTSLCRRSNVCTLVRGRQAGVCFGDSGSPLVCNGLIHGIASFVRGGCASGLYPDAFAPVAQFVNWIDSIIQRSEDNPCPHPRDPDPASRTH

[1] = target: T2, Receptor-type tyrosine-protein phosphatase C (Homo sapiens, UniProt P08575); set-up: species or system Escherichia coli;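 further: inhibition of CD45 enzyme activity measured using DiFMUP as substrate; in other assays of this panel Not Active means under 50% inhibition at 10 µM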
T2 sequence (P08575 whole entry): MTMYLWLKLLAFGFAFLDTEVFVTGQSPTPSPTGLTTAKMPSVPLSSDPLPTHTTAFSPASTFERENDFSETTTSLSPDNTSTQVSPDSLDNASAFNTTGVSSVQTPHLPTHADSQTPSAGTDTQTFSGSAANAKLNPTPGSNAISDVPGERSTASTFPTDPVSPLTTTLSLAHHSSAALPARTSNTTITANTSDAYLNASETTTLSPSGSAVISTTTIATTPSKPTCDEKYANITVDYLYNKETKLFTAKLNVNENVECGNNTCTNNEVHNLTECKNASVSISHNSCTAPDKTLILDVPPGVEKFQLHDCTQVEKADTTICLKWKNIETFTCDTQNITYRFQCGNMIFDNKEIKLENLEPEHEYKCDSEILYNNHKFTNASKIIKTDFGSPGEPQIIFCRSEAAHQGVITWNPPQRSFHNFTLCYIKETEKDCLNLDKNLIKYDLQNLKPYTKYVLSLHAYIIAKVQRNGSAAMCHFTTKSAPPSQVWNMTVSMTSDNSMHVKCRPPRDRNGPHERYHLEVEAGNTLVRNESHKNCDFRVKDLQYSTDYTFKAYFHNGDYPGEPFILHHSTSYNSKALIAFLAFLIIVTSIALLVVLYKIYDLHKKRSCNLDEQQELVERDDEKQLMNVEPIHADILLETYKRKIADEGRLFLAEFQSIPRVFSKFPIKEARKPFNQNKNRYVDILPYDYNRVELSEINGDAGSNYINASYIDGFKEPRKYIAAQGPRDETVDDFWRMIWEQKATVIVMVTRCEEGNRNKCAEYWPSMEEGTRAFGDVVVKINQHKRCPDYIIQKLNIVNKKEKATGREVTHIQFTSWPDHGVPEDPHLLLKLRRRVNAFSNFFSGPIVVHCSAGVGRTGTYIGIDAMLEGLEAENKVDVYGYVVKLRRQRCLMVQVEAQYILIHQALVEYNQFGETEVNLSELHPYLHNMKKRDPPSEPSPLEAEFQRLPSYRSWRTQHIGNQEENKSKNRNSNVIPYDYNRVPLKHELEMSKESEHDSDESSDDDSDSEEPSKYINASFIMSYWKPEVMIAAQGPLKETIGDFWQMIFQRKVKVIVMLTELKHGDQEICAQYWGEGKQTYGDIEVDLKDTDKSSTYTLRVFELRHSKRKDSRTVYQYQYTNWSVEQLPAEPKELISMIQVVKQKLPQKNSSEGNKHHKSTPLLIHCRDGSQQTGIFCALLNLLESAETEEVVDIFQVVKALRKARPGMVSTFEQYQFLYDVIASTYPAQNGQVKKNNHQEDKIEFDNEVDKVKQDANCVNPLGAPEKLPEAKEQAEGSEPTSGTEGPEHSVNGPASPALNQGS

[2] = target: Mitogen-activated protein kinase 3 (Homo sapiens, UniProt P27361); test: DRUGMATRIX: Protein Serine/Threonine Kinase, ERK1 enzyme inhibition (substrate: Myelin Basic Protein); set-up: species or system Escherichia coli; conditions: Not Active = under 50% inhibition at 10 µM
Sequence of Mitogen-activated protein kinase 3 (P27361 whole entry): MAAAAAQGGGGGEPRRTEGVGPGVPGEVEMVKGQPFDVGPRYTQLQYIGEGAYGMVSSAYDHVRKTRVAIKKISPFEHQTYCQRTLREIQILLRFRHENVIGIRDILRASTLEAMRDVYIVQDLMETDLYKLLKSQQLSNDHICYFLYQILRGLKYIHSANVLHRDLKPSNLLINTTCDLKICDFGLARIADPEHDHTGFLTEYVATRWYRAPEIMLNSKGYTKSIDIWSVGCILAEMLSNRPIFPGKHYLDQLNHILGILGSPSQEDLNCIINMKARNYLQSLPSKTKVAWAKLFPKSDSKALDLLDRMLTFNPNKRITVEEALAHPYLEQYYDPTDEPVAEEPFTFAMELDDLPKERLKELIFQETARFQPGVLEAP

[3] = target: Sodium-dependent dopamine transporter (Homo sapiens, UniProt Q01959); test: DRUGMATRIX: Dopamine Transporter radioligand binding (ligand: [125I] RTI-55); format: cell membranes, CHO-K1, Membrane; conditions: cho-k1; Not Active = under 50% inhibition at 10 µM
Sequence of Sodium-dependent dopamine transporter (Q01959 whole entry): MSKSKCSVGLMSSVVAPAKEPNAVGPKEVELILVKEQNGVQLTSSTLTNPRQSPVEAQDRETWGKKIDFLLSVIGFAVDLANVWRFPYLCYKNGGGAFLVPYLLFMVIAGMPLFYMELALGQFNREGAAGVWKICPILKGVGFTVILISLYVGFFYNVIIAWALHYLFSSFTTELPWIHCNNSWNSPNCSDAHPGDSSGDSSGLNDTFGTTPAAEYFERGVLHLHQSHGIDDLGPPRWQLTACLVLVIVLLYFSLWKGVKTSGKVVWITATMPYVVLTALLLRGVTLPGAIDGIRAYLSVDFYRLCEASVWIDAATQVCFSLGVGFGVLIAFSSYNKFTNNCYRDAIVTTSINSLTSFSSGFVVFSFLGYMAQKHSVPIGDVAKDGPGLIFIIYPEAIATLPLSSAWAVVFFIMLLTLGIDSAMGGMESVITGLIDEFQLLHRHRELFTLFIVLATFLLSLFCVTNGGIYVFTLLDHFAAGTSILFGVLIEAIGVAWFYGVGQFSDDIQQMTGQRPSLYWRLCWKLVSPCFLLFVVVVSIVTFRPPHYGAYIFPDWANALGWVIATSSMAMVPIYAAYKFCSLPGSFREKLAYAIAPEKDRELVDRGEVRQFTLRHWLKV

[4] = target: T3, Cholecystokinin receptor type A (Homo sapiens, UniProt P32238); format: cell membranes, Membrane; conditions: 1321-n1; further: in other assays of this panel Not Active means under 50% inhibition at 10 µM
T3 sequence (P32238 whole entry): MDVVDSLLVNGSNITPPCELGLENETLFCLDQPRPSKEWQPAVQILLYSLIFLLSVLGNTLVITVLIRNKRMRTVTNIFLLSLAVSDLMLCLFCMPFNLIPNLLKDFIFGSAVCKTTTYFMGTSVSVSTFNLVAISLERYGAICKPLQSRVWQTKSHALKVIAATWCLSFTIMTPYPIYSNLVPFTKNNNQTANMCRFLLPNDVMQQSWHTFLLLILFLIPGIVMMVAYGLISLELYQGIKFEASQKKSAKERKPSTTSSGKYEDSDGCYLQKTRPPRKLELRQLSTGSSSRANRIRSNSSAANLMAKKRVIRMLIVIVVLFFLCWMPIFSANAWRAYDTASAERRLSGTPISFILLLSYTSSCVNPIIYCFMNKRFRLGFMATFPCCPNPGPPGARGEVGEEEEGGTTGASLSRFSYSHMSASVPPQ

D(3) dopamine receptor = D(3) dopamine receptor (Homo sapiens, UniProt P35462); test: DRUGMATRIX: Dopamine D3 radioligand binding (ligand: [3H] Spiperone); format: cell membranes, CHO, Membrane
Sequence of D(3) dopamine receptor (P35462 whole entry): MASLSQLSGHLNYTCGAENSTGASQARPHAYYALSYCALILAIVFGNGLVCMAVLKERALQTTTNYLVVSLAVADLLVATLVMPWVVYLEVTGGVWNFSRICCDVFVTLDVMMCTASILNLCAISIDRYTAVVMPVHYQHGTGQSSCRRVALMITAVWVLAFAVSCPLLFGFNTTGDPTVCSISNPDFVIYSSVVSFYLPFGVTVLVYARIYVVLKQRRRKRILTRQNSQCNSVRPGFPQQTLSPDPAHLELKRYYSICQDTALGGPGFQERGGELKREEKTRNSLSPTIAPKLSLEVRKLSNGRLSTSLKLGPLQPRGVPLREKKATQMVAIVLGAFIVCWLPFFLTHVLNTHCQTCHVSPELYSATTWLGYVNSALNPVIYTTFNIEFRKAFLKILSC

Sequence of D(1A) dopamine receptor (P21728 whole entry): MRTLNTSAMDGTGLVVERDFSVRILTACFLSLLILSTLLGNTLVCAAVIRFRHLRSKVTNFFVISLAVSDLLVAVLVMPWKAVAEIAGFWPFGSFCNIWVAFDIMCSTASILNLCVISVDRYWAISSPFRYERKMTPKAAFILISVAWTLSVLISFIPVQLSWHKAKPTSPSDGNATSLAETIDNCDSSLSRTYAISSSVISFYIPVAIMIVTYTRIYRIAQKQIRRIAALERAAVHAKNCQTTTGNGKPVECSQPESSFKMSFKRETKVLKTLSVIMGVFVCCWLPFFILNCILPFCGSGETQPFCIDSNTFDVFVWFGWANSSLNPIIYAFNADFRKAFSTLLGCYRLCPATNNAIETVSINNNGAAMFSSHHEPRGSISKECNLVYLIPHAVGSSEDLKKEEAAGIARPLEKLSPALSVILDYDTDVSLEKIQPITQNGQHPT

Row | SMILES | IC50 (D(1A) dopamine receptor) | IC50 (Neutrophil elastase) | IC50 [1] | IC50 [2] | IC50 [3] | IC50 [4] | IC50 (D(3) dopamine receptor; cho) | IC50 (D(3) dopamine receptor; read-out: IC50) [nM] | Ki (D(3) dopamine receptor; read-out: Ki) [nM]
1 | COc1cc(N)nc2[nH]c(-c3ccc(F)cc3)c(-c3ccncc3)c12 | Not Active | Not Active | Not Active | Not Active | Not Active | Not Active | Not Active |  | 
2 | CNS(=O)(=O)Cc1ccc2[nH]cc(CCN(C)C)c2c1 | Not Active | Not Active | Not Active | Not Active | Not Active | Not Active | Not Active |  | 
3 | CCCc1nn(C)c2c(=O)[nH]c(-c3cc(S(=O)(=O)N4CCN(C)CC4)ccc3OCC)nc12 | Not Active | Not Active | Not Active | Not Active | Not Active | Not Active | Not Active |  | 
4 | COc1ccc(/C=C/C(=O)Nc2ccccc2C(=O)O)cc1OC | Not Active | Not Active | Not Active | Not Active | Not Active | Not Active | Not Active |  | 
5 | CCOC(N)=O | Not Active | Not Active | Not Active | Not Active | Not Active | Not Active | Not Active |  | 
6 | CC(=O)Nc1nnc(S(N)(=O)=O)s1 [ACETAZOLAMIDE] |  | Not Active | Not Active | Not Active | Not Active | Not Active | Not Active |  | 
7 | O=c1[nH]c2ccccc2n1CCCN1CCC(n2c(=O)[nH]c3cc(Cl)ccc32)CC1 [DOMPERIDONE] |  | Not Active | Not Active | Not Active | Not Active | Not Active |  |  | 
8 | CC1=C(CC(=O)O)c2cc(F)ccc2/C1=C\c1ccc(S(C)(=O)=O)cc1 [EXISULIND] | Not Active | Not Active | Not Active | Not Active | Not Active | Not Active | Not Active |  | 
9 | CC(C)OC(=O)C(C)(C)Oc1ccc(C(=O)c2ccc(Cl)cc2)cc1 [FENOFIBRATE] |  | Not Active | Not Active | Not Active |  | Not Active |  |  | 
10 | OCCN1CCN(CCCN2c3ccccc3Sc3ccc(C(F)(F)F)cc32)CC1 [FLUPHENAZINE] |  | Not Active | Not Active | Not Active |  | Not Active |  |  | 
11 | CN1C2CCCC1CC(NC(=O)c1nn(C)c3ccccc13)C2 (centres undefined) [GRANISETRON] |  | Not Active | Not Active | Not Active | Not Active | Not Active | Not Active |  | 
12 | Nc1nc2c(c(=O)[nH]1)N(C=O)C(CNc1ccc(C(=O)N[C@@H](CCC(=O)O)C(=O)O)cc1)CN2 (some centres undefined) [LEUCOVORIN] | Not Active | Not Active | Not Active |  | Not Active | Not Active | Not Active |  | 
13 | C[C@@H](O)[C@H]1C(=O)N2C(C(=O)O)=C(S[C@@H]3CN[C@H](C(=O)N(C)C)C3)[C@H](C)[C@H]12 [MEROPENEM] | Not Active | Not Active | Not Active | Not Active | Not Active | Not Active | Not Active |  | 
14 | CC[C@@H](CO)NC(=O)[C@@H]1C=C2c3cccc4c3c(cn4C)C[C@H]2N(C)C1 [METHYSERGIDE] |  | Not Active | Not Active | Not Active | Not Active | Not Active |  | 172 | 59
15 | CCN(CC)CC#CCOC(=O)C(O)(c1ccccc1)C1CCCCC1 (centres undefined) [OXYBUTYNIN] |  | Not Active | Not Active | Not Active |  | Not Active |  |  | 
16 | O=P(O)(O)C(O)(Cc1cccnc1)P(=O)(O)O [RISEDRONIC ACID] | Not Active | Not Active | Not Active | Not Active | Not Active | Not Active | Not Active |  | 
17 | CN(CCOc1ccc(CC2SC(=O)NC2=O)cc1)c1ccccn1 (centres undefined) [ROSIGLITAZONE] | Not Active | Not Active | Not Active | Not Active | Not Active | Not Active | Not Active |  | 
18 | C=C(C)[C@H]1Cc2c(ccc3c2O[C@@H]2COc4cc(OC)c(OC)cc4[C@@H]2C3=O)O1 [ROTENONE] | Not Active | Not Active | Not Active | Not Active | Not Active | Not Active | Not Active |  | 
19 | C#CCN(C)[C@H](C)Cc1ccccc1 [SELEGILINE] | Not Active | Not Active | Not Active | Not Active | Not Active | Not Active | Not Active |  | 
20 | CO[C@H]1C[C@@H]2CC[C@@H](C)[C@@](O)(O2)C(=O)C(=O)N2CCCC[C@H]2C(=O)O[C@H]([C@H](C)C[C@@H]2CC[C@@H](O)[C@H](OC)C2)CC(=O)[C@H](C)/C=C(\C)[C@@H](O)[C@@H](OC)C(=O)[C@H](C)C[C@H](C)/C=C/C=C/C=C/1C [SIROLIMUS] | Not Active | Not Active | Not Active | Not Active | Not Active | Not Active | Not Active |  | 
21 | CN[C@@H]1[C@H](O)[C@H](NC)[C@H]2O[C@@]3(O)C(=O)C[C@@H](C)O[C@H]3O[C@@H]2[C@H]1O [SPECTINOMYCIN] | Not Active | Not Active | Not Active | Not Active | Not Active | Not Active | Not Active |  | 
22 | Nc1ccc(S(=O)(=O)Nc2ncccn2)cc1 [SULFADIAZINE] | Not Active | Not Active | Not Active | Not Active | Not Active | Not Active | Not Active |  | 
23 | COc1ncnc(NS(=O)(=O)c2ccc(N)cc2)c1OC [SULFADOXINE] | Not Active | Not Active | Not Active | Not Active | Not Active | Not Active | Not Active |  | 
24 | Nc1ccc(S(=O)(=O)Nc2nccs2)cc1 [SULFATHIAZOLE] | Not Active | Not Active | Not Active | Not Active | Not Active | Not Active | Not Active |  | 
25 | O=c1n(CCCN2CCN(c3cccc(Cl)c3)CC2)nc2ccccn12 [TRAZODONE] |  | Not Active | Not Active | Not Active | Not Active | Not Active |  |  | 

Source: ChEMBL document CHEMBL1909046, “DrugMatrix in vitro pharmacology data”
